According to ChEMBL document CHEMBL5715954, “Silencing c-Myc translation as a therapeutic strategy through targeting PI3Kδ and CK1ε in hematological malignancies” (Blood, 2017):

Experiments:
Set-up in all cases: scale not given: the % may be the effect or the level left
[1] = molecular target: Receptor-interacting serine/threonine-protein kinase 3 (Homo sapiens) (UniProt Q9Y572); assay: Inhibition of human RIPK3 assessed as enzyme activity at 1 uM using myelin basic protein as substrate preincubated for 20 mins followed by [gamma-33P]-ATP addition and measured after 120 mins by radiometric Hot-SpotSM Kinase assay relative to control
Sequence of Receptor-interacting serine/threonine-protein kinase 3 (Homo sapiens) (Q9Y572 whole entry, looked up): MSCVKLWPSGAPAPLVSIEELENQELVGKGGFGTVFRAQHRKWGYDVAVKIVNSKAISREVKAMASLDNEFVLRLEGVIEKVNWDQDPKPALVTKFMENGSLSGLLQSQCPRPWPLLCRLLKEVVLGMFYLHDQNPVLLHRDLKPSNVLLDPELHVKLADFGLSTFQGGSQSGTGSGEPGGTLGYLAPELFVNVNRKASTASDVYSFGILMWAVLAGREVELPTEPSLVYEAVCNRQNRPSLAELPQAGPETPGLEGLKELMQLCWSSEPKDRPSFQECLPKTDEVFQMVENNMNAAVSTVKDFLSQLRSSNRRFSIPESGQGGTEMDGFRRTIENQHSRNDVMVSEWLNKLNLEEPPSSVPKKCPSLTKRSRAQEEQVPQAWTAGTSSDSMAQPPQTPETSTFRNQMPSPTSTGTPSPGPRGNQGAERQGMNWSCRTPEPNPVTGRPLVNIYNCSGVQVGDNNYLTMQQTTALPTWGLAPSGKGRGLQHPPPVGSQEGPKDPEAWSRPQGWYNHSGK

[2] = molecular target: Ephrin type-A receptor 2 (Homo sapiens) (UniProt P29317); assay: Inhibition of human EPHA2 assessed as enzyme activity at 1 uM using poly[Glu:Tyr] (4:1) as substrate preincubated for 20 mins followed by [gamma-33P]-ATP addition and measured after 120 mins by radiometric Hot-SpotSM Kinase assay relative to control
Sequence of Ephrin type-A receptor 2 (Homo sapiens) (P29317 whole entry): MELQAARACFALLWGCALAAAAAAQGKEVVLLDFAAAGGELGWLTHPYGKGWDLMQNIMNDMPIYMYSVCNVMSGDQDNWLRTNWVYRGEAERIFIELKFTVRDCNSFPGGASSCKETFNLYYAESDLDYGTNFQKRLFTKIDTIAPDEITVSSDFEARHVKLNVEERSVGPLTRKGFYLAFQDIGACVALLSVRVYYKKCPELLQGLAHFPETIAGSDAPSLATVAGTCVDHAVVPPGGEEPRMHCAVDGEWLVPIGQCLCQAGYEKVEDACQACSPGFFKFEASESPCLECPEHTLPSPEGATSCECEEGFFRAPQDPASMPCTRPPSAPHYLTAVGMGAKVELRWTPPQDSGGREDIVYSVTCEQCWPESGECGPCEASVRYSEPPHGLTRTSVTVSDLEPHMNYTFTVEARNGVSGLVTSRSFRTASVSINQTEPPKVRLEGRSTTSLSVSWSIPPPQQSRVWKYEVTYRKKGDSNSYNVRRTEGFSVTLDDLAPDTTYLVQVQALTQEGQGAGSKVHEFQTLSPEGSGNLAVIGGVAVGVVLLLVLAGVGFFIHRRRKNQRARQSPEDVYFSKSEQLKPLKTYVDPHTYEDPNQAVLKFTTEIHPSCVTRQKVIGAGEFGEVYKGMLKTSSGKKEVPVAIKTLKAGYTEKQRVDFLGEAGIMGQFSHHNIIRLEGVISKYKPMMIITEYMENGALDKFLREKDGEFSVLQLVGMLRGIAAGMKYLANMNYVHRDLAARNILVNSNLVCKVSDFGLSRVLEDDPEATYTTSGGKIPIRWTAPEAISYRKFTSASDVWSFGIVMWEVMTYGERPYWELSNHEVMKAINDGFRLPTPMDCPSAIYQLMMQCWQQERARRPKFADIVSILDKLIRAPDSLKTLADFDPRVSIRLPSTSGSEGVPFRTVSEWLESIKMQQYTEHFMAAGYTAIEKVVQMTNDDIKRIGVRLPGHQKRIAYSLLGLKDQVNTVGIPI

[3] = molecular target: Mitogen-activated protein kinase 11 (Homo sapiens) (UniProt Q15759); assay: Inhibition of human P38b assessed as enzyme activity at 1 uM using myelin basic protein as substrate preincubated for 20 mins followed by [gamma-33P]-ATP addition and measured after 120 mins by radiometric Hot-SpotSM Kinase assay relative to control
Sequence of Mitogen-activated protein kinase 11 (Homo sapiens) (Q15759 whole entry): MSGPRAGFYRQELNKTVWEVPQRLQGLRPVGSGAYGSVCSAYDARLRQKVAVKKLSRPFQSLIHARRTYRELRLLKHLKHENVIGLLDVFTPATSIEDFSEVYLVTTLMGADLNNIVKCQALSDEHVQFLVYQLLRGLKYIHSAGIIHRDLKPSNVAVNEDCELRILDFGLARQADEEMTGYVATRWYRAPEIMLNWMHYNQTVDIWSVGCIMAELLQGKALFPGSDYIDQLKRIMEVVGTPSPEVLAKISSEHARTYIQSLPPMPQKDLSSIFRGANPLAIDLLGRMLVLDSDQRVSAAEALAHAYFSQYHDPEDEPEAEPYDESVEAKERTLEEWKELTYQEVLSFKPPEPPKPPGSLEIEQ

[4] = molecular target: T1, Mitogen-activated protein kinase kinase kinase 3 (Homo sapiens) (UniProt Q99759); assay: Inhibition of human MEKK3 assessed as enzyme activity at 1 uM using myelin basic protein as substrate preincubated for 20 mins followed by [gamma-33P]-ATP addition and measured after 120 mins by radiometric Hot-SpotSM Kinase assay relative to control
T1 sequence (whole entry): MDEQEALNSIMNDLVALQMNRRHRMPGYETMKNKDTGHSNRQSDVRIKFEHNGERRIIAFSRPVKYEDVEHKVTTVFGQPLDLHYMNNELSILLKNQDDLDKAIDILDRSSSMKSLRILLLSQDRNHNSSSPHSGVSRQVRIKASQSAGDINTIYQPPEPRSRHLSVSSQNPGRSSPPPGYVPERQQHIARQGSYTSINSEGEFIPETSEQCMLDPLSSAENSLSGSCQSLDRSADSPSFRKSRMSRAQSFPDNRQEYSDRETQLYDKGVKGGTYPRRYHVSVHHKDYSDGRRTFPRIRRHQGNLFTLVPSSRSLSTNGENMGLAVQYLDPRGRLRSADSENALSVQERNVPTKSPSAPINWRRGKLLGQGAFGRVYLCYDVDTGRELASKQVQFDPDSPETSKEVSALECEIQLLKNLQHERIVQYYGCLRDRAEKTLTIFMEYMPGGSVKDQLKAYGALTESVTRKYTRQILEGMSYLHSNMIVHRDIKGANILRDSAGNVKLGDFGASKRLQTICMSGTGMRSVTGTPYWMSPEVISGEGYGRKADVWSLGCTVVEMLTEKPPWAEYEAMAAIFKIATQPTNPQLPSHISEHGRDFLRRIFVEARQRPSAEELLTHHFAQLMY

[5] = molecular target: Glycogen synthase kinase-3 beta (Homo sapiens) (UniProt P49841); assay: Inhibition of human GSK3b assessed as enzyme activity at 1 uM using YRRAAVPPSPSLSRHSSPHQ(pS)EDEEE as substrate preincubated for 20 mins followed by [gamma-33P]-ATP addition and measured after 120 mins by radiometric Hot-SpotSM Kinase assay relative to control
Sequence of Glycogen synthase kinase-3 beta (Homo sapiens) (P49841 whole entry, looked up): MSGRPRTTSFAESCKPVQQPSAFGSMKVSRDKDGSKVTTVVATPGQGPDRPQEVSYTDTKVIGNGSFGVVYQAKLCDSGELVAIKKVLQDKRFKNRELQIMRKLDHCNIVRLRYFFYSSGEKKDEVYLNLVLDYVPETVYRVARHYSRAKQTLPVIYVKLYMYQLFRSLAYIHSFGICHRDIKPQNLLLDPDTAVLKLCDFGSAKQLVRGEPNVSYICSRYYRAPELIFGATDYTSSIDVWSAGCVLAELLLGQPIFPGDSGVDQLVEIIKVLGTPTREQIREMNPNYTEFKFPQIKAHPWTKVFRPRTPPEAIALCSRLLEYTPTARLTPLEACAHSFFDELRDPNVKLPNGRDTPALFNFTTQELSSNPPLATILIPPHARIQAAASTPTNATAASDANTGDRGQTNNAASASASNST

[6] = molecular target: T2, Ephrin type-B receptor 1 (Homo sapiens) (UniProt P54762); assay: Inhibition of human EPHB1 assessed as enzyme activity at 1 uM using poly[Glu:Tyr] (4:1) as substrate preincubated for 20 mins followed by [gamma-33P]-ATP addition and measured after 120 mins by radiometric Hot-SpotSM Kinase assay relative to control
T2 sequence (whole entry): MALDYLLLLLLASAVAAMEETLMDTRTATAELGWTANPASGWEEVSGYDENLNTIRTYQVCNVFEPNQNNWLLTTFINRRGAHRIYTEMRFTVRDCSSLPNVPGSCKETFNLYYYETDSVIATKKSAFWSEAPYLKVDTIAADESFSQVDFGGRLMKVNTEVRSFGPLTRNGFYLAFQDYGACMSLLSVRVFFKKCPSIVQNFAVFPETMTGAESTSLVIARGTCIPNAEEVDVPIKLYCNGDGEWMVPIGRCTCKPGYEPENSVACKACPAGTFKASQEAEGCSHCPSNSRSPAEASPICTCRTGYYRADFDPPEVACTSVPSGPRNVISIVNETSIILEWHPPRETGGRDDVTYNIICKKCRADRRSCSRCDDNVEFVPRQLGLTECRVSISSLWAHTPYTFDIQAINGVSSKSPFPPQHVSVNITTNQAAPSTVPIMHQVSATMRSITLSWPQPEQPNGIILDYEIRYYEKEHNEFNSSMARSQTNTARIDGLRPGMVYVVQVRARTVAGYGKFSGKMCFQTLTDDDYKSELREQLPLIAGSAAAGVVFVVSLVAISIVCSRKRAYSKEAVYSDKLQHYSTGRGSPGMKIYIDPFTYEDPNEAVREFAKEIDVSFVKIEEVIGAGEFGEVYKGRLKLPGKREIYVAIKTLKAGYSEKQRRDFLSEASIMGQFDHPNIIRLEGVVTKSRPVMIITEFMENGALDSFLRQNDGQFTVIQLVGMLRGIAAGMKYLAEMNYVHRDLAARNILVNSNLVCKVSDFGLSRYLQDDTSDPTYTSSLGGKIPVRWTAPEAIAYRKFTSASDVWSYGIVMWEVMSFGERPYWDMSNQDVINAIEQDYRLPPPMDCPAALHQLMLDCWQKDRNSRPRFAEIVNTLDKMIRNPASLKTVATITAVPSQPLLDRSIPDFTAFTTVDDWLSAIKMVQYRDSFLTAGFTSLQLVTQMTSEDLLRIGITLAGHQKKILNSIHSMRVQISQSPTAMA

[7] = molecular target: T3, Dual specificity mitogen-activated protein kinase kinase 4 (Homo sapiens) (UniProt P45985); assay: Inhibition of human MKK4 assessed as enzyme activity at 1 uM using JNK1 (K55M) as substrate preincubated for 20 mins followed by [gamma-33P]-ATP addition and measured after 120 mins by radiometric Hot-SpotSM Kinase assay relative to control
T3 sequence (whole entry): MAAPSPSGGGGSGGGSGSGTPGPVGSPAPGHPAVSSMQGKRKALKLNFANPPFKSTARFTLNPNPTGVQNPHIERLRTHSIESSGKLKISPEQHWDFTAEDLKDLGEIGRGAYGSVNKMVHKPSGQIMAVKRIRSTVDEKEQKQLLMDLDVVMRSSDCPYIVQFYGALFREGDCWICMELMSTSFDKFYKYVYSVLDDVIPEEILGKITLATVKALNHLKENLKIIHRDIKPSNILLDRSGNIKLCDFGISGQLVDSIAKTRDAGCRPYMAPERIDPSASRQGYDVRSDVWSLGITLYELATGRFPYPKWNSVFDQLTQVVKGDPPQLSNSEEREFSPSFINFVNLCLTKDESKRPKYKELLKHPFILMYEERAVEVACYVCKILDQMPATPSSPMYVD

[8] = molecular target: Fibroblast growth factor receptor 3 (Homo sapiens) (UniProt P22607); assay: Inhibition of human FGFR3 assessed as enzyme activity at 1 uM using poly[Glu:Tyr] (4:1) as substrate preincubated for 20 mins followed by [gamma-33P]-ATP addition and measured after 120 mins by radiometric Hot-SpotSM Kinase assay relative to control
Sequence of Fibroblast growth factor receptor 3 (Homo sapiens) (P22607 23-806 limits assumed): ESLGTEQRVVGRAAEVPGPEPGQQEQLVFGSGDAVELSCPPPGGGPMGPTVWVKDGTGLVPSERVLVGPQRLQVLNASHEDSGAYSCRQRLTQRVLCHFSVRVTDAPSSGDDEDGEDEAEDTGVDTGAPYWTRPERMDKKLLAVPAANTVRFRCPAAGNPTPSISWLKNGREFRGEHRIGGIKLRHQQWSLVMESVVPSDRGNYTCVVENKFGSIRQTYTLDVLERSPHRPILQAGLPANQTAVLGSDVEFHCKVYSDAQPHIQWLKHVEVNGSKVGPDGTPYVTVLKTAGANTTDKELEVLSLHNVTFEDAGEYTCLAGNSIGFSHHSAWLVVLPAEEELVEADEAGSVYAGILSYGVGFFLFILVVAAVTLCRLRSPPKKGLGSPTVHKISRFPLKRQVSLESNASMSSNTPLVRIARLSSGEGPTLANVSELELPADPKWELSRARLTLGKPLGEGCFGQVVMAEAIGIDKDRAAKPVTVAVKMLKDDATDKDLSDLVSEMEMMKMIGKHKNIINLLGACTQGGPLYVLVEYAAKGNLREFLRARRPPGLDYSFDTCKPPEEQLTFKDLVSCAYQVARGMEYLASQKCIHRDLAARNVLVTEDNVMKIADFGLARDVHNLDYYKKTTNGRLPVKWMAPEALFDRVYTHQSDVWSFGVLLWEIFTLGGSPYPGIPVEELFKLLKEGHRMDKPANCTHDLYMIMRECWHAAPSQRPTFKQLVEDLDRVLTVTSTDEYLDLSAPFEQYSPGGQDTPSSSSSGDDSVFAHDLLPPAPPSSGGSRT

`CC[C@H](Nc1ncnc2[nH]cnc12)c1nc2cccc(F)c2c(=O)n1-c1ccccc1` was tested, and the Activity [1] was 102%, the Activity [2] was 97% and the Activity [3] was 94.8%. The Activity [4] was 102%, the Activity [5] was 114% and the Activity [6] was 90.6%. It also gave an Activity [7] of 99.9% and an Activity [8] of 88.8%.
`C[C@H](Nc1ncnc2nc[nH]c12)c1cc2cccc(Cl)c2c(=O)n1-c1ccccc1` gave an Activity [1] of 97.6%, an Activity [2] of 96.3% and an Activity [3] of 92.6%. For the same compound, the Activity [4] was 91.8%, the Activity [5] was 113% and the Activity [6] was 93.4%. The Activity [7] was 96.9% and the Activity [8] was 93.2%.
`CC(C)Oc1ccc(-c2nn([C@@H](C)c3oc4ccc(F)cc4c(=O)c3-c3cccc(F)c3)c3ncnc(N)c23)cc1F` [UMBRALISIB] showed an Activity [1] of 107%, an Activity [2] of 97.2% and an Activity [3] of 89.3%. For the same compound, the Activity [4] was 102%, the Activity [5] was 111% and the Activity [6] was 95.5%. For the same compound, the Activity [7] was 98.7% and the Activity [8] was 94.3%.
